Data: patent publication US20140099354A1, “BIOPASSIVATING MEMBRANE STABILIZATION BY MEANS OF NITROCARBOXYLIC ACID-CONTAINING PHOSPHOLIPIDS IN PREPARATIONS AND COATINGS” (priority 2011, published 2014)

Experiments:
[1] = system: HeLa, HUVEC and L929 fibroblast; test: cells; type: cell-based; details: for viability as quantified by the MTT assay: tested concentrations 10 μmol to 1 mmol, EC50 could not be calculated
Procedure: (§1) Physiologically occurring phospholipids can be taken up by virtually all cell lines in large quantities. It is known that phospholipids that contain non-physiologically occurring fatty acid residues can cause cell lyses or death. Three cell lines (HeLa, HUVEC and L929 fibroblast) were cultured in a suitable culture medium of 5% FCS at 37° C. and 5% CO2 concentrations to a subconfluent concentration of 1.5×10^5 cells.
SOPC, DOPC, POPC, ONOPC, PNLPC, and the free fatty acids of OA, LA, NOOA, and NOLA were dissolved in 0.5% DMSO. […] Cell cultures were incubated for 24 h and 48 h. Thereafter, the culture medium was removed and the cells washed twice. Following this, cells suspensions were given in four vials to perform the following analysis:
For the determination of viability, phenol red was added to the suspended cells. After 4 h, the medium was renewed and 10 μl of the MTT solution was added. The cells were cultured for 4 hours, and then a 10% SDS solution was pipetted. After 24 h, absorption of formazan crystals was measured at 500 nm using a power wave X (bio-tek instruments, Inc., USA). For the quantitative comparison of toxicity, the EC50 was determined.

[2] = system: HeLa, HUVEC and L929 fibroblast; test: Volumetric measurement of cells (Coulter counter); type: cell-based; details: time-dependent increase after incubation
Procedure: as §1
(§2) SOPC, DOPC, POPC, ONOPC, PNLPC, and the free fatty acids of OA, LA, NOOA, and NOLA were dissolved in 0.5% DMSO. Experiments were performed also with nitro-carboxylic acid-containing phospholipids according to examples N15-N20, G, O3, O5, P2, P5, P8, P9, P11 and Q. PL prepared as aqueous suspensions were added the culture flasks in order to achieve PL concentrations in the culture medium from 10 μmol to 1 mmol. Cell cultures were incubated for 24 h and 48 h. Thereafter, the culture medium was removed and the cells washed twice. Following this, cells suspensions were given in four vials to perform the following analysis:
Volumetric measurement of cells was done in a Histopenz (Sigma) solution with an effective NaCl concentration of 0.9% (approximately 290 mOsm) heated to 37° C. in which the cells were suspended; thereafter the solution was sonified for 2 minutes. Measurements were done using a Coulter counter Z2.

[3] = system: Cardiac muscle cells derived from neonatal rat heart; test: Hypoxia of cardiac muscle cells (viability, mitochondrial NAD+); type: cell-based; design: loss of viability of heart muscle cells after hypoxia: concentration or dose not given beside the values; details: for mitochondrial NAD+ content: hypoxia, baseline 5
Procedure: Cardiac muscle cells derived from neonatal rat heart (Nitobe J, et al, Reactive oxygene species regulate FLICE inhibitory protein and susceptibility to FAS-mediated apoptosis in cardiac myocytes. Cardiovasc RES 2003, 119-28). The heart muscle cells were cultured in Dulbecco/Eagle medium (DMEM) with 10% FCS added under standard conditions for two days. Incubation with the natural and nitrated phospholipids, as well as the hypoxia experiments were carried out as described above. Incubated cells were grown in culture medium under standard conditions for 24 hours. This is followed by a vitality staining as described above. […] The frozen cells were thawed up to -4° C. and homogenized for subsequent NAD^+ analyses. By means of differential centrifuge, pellets containing mitochondria were separated (Di Lisa, et al, 1993; Am. J. Physiol. 264, […]-[…]). The NAD^+ content was determined by fluoroscopy, and normalized to the protein content (Veloso, D., and […]., 1974;) Anal. Biochem., 449-450).

sciatic nerve = test: Viability of cryopreserved nerve grafts (Annexin-V staining, FACS); type: cell-based, rats; details: 100 mmolar solution 1 hour; −30° C. 72 hours
[4] = system: HeLa, HUVEC and L929 fibroblast; test: Cell viability with the live/dead assay; type: cell-based
Procedure: as §1, §2
Studies of cell viability were carried out with the live/dead assay (Molecular Probes). For this purpose, the cells were washed twice with PBS solution and then seeded into a culture medium. Incubation with the staining solution (in 0.1% DMSO) was carried out over 30 minutes in the dark. The viability analyses were performed using fluorescence microscopy.

cortical neurons = test: Hypoxia and reperfusion of cortical neurons (viability, LDH)
Procedure: To determine whether the membrane-stabilizing properties of nitrated phospholipids can lead to attenuation of effects due to an ischemic event or the re-perfusion damage, cortical neurons and cardiac myocytes were investigated.
Freshly prepared cortex tissue was separated with Papain and tissue suspensions were cultured in culture vessels (Prim ARA; BD Biosciences, USA) with Neurobasal A/B27 medium (Invitrogen) for 10-12 days. Cell suspensions were divided, and replenished with suspensions of the natural phospholipids SOPC and PLPC, as well as the analogue phospholipids with nitration of unsaturated fatty acids (1-stearoyl-2-(9-nitrooleoyl)-sn-PC and 1-palmitoyl-2-(9-nitrolinoleoyl)-sn-PC) at concentrations of 10 to 50 μmol/l in NaCl (0.9%) were added. […] After 4 hours, the cells were washed three times with buffered saline and buffered NaCl solution with the addition of MgCl2 and CaCl2 in an anaerobic atmosphere (85% N2, 5% O2, 10% CO2; at 35° C.) for 10 and 30 minutes. Then, the cells were washed once and grown in culture medium under aerobic conditions for 24 hours. […] Cells were stained with annexin V-FITC and propidium iodide (Molecular probes, USA). The vital and necrotic cells were measured by flow cytometry (FACSCalibur, Becton & Dickinson). The volume of culture medium was determined and an aliquot was taken for determination of the LDH (lactate dehydrogenase) concentration.

[5] = Tissue response to coated silicone implants in vivo after bleomycin; design: species or system Wistar rats; details: silicone cushions, subcutaneous, 7 to 90 days
Procedure: Induction of fibrotic tissue production by connective tissue activation as a consequence of implantation of foreign material was examined in an in-vivo animal model. As implant materials, sterile silicone cushions having a diameter of 1 cm were used.
In male Wistar rats (190-240 g) that were fed and housed under identical conditions for one week, general anaesthesia was performed by intramuscular injection of 0.008 mL/100 g ketamine and 0.004 mL/100 g xylocaln chloride 2%. Then the back of the animals was shaved, sterilized and infiltrated with xylocalne chloride. A paravertebral incision was made on both sides with a length of 1.5 cm followed by preparation of the subcutaneous tissue, so that on both sides approx. 2×2 cm cavities were preformed. Hemostasis was achieved by cauterization, if necessary. Then balls of cotton saturated with Bleomycin (cell-pharm GmbH, Hannover, Germany: 1% in 0.9% NaCl solution) were inserted into the cavities for 3 minutes and then removed. Without rinsing the cavities, the implants coated with a nitrated phospholipid were inserted into the cavity on the left side and the implants coated with natural phospholipid into the cavity on the right side. Thereafter, a layer by layer wound closure was performed and a sterile adhesive bandage was applied.
The animals were kept according to standard conditions for 7, 14, 30, 60 and 90 days. At any study time endpoint, two animals were euthanized. After death the well visible and palpable implants were removed using en-block resection technique. The resected specimens were fixed and embedded in paraffin. Then they were cut in half and the liquid silicone was removed. The specimens were embedded again and cut into thin slices which were stained with H & E and Sirius red, and evaluated by light microscopy. Evaluation was done according to the following criteria:
A1: none; A2: occasional monocytic cells or lymphocytes; A3: moderate numbers or groups of monocytic cells or lymphocytes; A4: dense infiltration of monocytes, eosinophils, or giant cells.
B1: none; B2: collagen-rich layer around the implant; B3: thick (>1 mm) and dense collagen-rich tissue formation around the implant.
In every 10th serial section 10 fields of view uniformly distributed over the circumference of the implant were evaluated and the herein predominant expression was assigned to an event table. In total, 200 fields of view were analyzed per implant

ovarian tissue strips [6] = test: Cryopreservation of ovarian tissue strips: 17 β-estradiol and progesterone (radio-immuno assay); type: cell-based, sheep; details: after cryopreservation and culture
Procedure: (§3) Ovar ectomy was performed in female sheep; resected tissues were cut into 60 ovarian tissue strips. The ovarian strips were either cultured directly (n=4) or prepared with a usual solution for vitrification (VS group; Vitrification Kit, Sage, USA) or incubated with nitrated PLs (NPL group). For this purpose, the tissue strips were bathed in an equibrilation solution (ART-8025-A) which consisted of MOPS-buffered amino acids and gentamicin sulfate (10 mg/l), and 7.5% (v/v) of each DMSO and ethylene glycol and 12 mg/ml human serum albumin for 30 minutes. Thereafter the strips of the VS group were placed in the vitrification solution (ART-8025-B), which is a MOPS-buffered solution containing amino acids and gentamicin sulfate, that contain 15% (v/v) each DMSO and ethylenglycol, 12 mg/ml human albumin and 0.6 M sucrose. The strips of the NPL group were placed in a solution containing 25% (v/v) nitrated PL SNOPC or PNLPC in a PBS-buffered 1% DMSO solution containing 5% human albumin for 60 minutes. The treated tissue strips were then immersed into liquid nitrogen and kept here for 14 days. Then removal and warming of the tissue pieces was performed in AIM-V medium (Gibco, Invitrogen) in a sterile culture dish, first up to 5° C. within 20 minutes, then heated further in a water bath up to 37° C., within the following 60 minutes. The culture medium was replaced and specimens cultured for 14 days. After this, the tissue pieces were fixed, embedded in paraffin and cut, followed by histological examination. […] The total number of intact follicles in the control group was taken as a reference to the number of follicles in the cryopreserved groups.
(§4) The culture medium has been exchanged by every 2nd day; samples for hormone analysis were taken and frozen at that time. Determination of 17 β-estradiol and progesterone were performed with a radio-immuno assay (diagnostic systems laboratories, USA).

ovarian tissue strips [7] = test: Cryopreservation of ovarian tissue strips: intact follicles; details: liquid nitrogen 14 days, cultured 14 days
Procedure: as §3, §4

TRPV1, 2 and 4, TRPA1 = test: Inducible ion current of TRP receptors in Xenopus oocytes (voltage clamp); type: cell-based, rat; details: 50 mmol/l, 10 and 60 minutes
Procedure: An established in-vitro model of Xenopus oocytes (Dascal N, 1987 The use of Xenopus oocytes. CRC critical reviews in biochemistry 22, 317-387) was used to study the influence of incubation with PL on ion channels regulated by membrane receptors. Defolliculized oocytes were transfected with cRNA (rat) of TRPV1, 2 and 4, as well as of TRPA1, stored in tissue culture plates and incubated in culture medium (ND 96) at 15° C. under constant motion in the incubator for 7 to 10 days.
Induced leakage currents through activation of the TRP receptors was determined by means of double electrode voltage-clamp technique (Ahern G P, Brooks I M, Miyares R L &Wang X B, 2005, Extracellular cations sensitize and gate capsaicin receptor TRPV1 modulating pain signalling. J Neurosci 25, 5109-5116). Ooocytes were probed with borosilicate glass capillaries (Clark) and connected to a feedback amplifier (Gene clamp Amplifier, Axon instruments). The membrane potential of oocytes was clamped to −60 or −90 mV. The presence of a directive […] current was compared to non-transfected controls. The investigations were performed in a miniature organ bath in calcium-free buffered (Hepes, pH 7.3) NaCl solution. The TRPV1 receptor excitation was initiated by rapidly changing of the bath solution against a capsaicin solution (10 μmol). Results of non-pretreated oocytes were used for normative comparison of subsequent measurements of incubatesd cells. Investigations with incubated cells were carried out in the same way for oocytes transfected with the TRPV2, and TRPV4 and TRPA1 receptors, wherein the receptor agonists cannabidiol (10 μmol) and 4α-PDD (4α-phorbol 12,13-didecanoate, 50 μmol) and innamaldehyde (50 μmol) were used instead of capsaicin.

[8] = system: Heart muscle cells from rabbit hearts; test: Cytosolic Ca2+ concentration in heart muscle cells (fluo-4 fluorescence); type: cell-based
Procedure: Heart muscle cells were taken from rabbit hearts according to a method described elsewhere (Shannon T R, Ginsburg K S, Bers D M. Quantitative assessment of the SRCa^2+ leak-load relationship. Circ Res. 2002; 91:594-600). The prepared cells were cultured for 72 hours.
The cytosolic Ca^2+ concentrations were determined with fluo-4 fluorescence. Therefore the cells were incubated with 10 μmol fluo-4 AM (1%) for 30 minutes and washed thereafter three times with PBS. The cells were stimulated in a Tryode solution on a platinum electrode with a frequency of 0.5 Hz over 20 cycles. Then the ambient medium was changed and an electrolyte-free colloidal solution was added. Determination of the Ca concentration was performed after each series of stimulation over 20 cycles. Calcium content was estimated by the use of confocal laser scanning microscopy (Olympus). At least 10 cells per experiment were evaluated in a post-systolic interval of 1000 ms. The measurements were repeated at least three times. β-adrenergic stimulation was performed with 250 nmol/L isoproterenol, which was given to the medium.

Compound: CCCCCCCC/C=C\CCCCCCCC(=O)O[C@H](COC(=O)CCCCCCCCCCCCCCCCC)COP(=O)([O-])OCC[N+](C)(C)C [SOPC, 1-Stearoyl-2-oleoyl-sn-glycero-3-PC, reference compound]
- viability as quantified by the MTT assay [1]: only slightly decreased
- cell volume (increase in size to) [2]: 150%
- loss of viability of heart muscle cells after hypoxia ([3]; (10 minutes)): 14%
- loss of viability of heart muscle cells after hypoxia ([3]; (30 minutes)): 40%
- mitochondrial NAD+ content ([3]; first printed value): 3.0 nmol/mg protein
- mitochondrial NAD+ content ([3]; second printed value): 1.1 nmol/mg protein
- proportion of living cells relative to non-frozen control (sciatic nerve): 26%
- viability according to the live/dead staining [4]: high rate of viability
- increase in LDH versus normoxemia culture (cortical neurons; 10-minutes ischemia): 280 fold
- viability of cortical cells measured after 24 hours (cortical neurons; 10-minutes ischemia): 33%
- increase in LDH versus normoxemia culture (cortical neurons; 30-minutes ischemia): 640 fold
- viability of cortical cells measured after 24 hours (cortical neurons; 30-minutes ischemia): 0%

Compound: CCCCC/C=C\CC=C(CCCCCCCC(=O)O[C@H](COC(=O)CCCCCCCCCCCCCCC)COP(=O)([O-])OCC[N+](C)(C)C)[N+](=O)[O-] [Example P7, 1-palmitoyl-2-(9-nitrolinoleoyl)-sn-3-glycerophosphocholine]
- biocompatibility of coated implants compared to natural PLs [5]: improved biocompatibility of implants several-fold
- total viability (MTT assay) [1]: 75%
- EC50 ([1]; after 48 hours, range over cell lines, read-out: EC50 (MTT assay)): 400 to 3900 µM
- estradiol (ovarian tissue strips [6]): 8.3 ng/mL
- progesterone (ovarian tissue strips [6]): 0.4 ng/mL
- rate of intact follicles relative to the control group (ovarian tissue strips [7]): 98%
- loss of viability of heart muscle cells after hypoxia ([3]; (10 minutes)): 5%
- loss of viability of heart muscle cells after hypoxia ([3]; (30 minutes)): 18%
- mitochondrial NAD+ content ([3]; first printed value): 3.6 nmol/mg protein
- mitochondrial NAD+ content ([3]; second printed value): 3.1 nmol/mg protein
- inducible membrane channel activity of TRP channels (TRPV1, 2 and 4, TRPA1): significant decrease of inducible membrane channel activity
- increase in LDH versus normoxemia culture (cortical neurons; 10-minutes ischemia): 130 fold
- viability of cortical cells measured after 24 hours (cortical neurons; 10-minutes ischemia): 70%
- increase in LDH versus normoxemia culture (cortical neurons; 30-minutes ischemia): 290 fold
- viability of cortical cells measured after 24 hours (cortical neurons; 30-minutes ischemia): 52%
- end of diastole (ED) cytosolic calcium ([8]; after hypoxia): 70 nmol/L
- post systolic (PS) cytosolic calcium ([8]; after hypoxia): 30 nmol
- end of diastole (ED) cytosolic calcium ([8]; after hypoxia and stimulation with isoproterenol): 100 nmol/L
- end of diastole (ED) cytosolic calcium ([8]; normoxic conditions): 30 nmol/L
- post systolic (PS) cytosolic calcium ([8]; normoxic conditions): 10 nmol

Compound: CCCCCCCC/C=C\CCCCCCCC(=O)OC[C@H](COP(=O)([O-])OCC[N+](C)(C)C)OC(=O)CCCCCCC/C=C\CCCCCCCC [DOPC, 1,2-dioleoyl-sn-glycero-3-PC]
- viability as quantified by the MTT assay [1]: only slightly decreased
- cell volume (increase in size to) [2]: 180%
- viability according to the live/dead staining [4]: high rate of viability
